In ChEMBL document CHEMBL1201862, “PubChem BioAssay data set” (2004):
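48-hour exposure; five concentrations; linearly interpolated endpoints. At the GI50, growth is halved.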 The source made the active and inactive calls. Rule as the data show it: active = GI50 up to about 1.1 µM and inactive = higher.

Experiments:
Experiment in all cases: growth of human tumour cells (NCI), 48 h
[1] = test system: 786-0
[2] = test system: A498
[3] = test system: A549
[4] = test system: ACHN
[5] = test system: BT-549
[6] = test system: CAKI-1
[7] = test system: CCRF-CEM
[8] = test system: COLO 205
[9] = test system: DLD-1
[10] = test system: DMS-114
[11] = test system: DMS-273
[12] = test system: DU-145
[13] = test system: EKVX
[14] = test system: HCC 2998
[15] = test system: HCT-116
[16] = test system: HCT-15
[17] = test system: HL-60
[18] = test system: HOP-18
[19] = test system: HOP-62
[20] = test system: HOP-92
[21] = test system: HT-29
[22] = test system: Hs-578T
[23] = test system: IGROV-1
[24] = test system: K562
[25] = test system: KM-20L2
[26] = test system: KM12
[27] = test system: LOX IMVI
[28] = test system: LXFL 529
[29] = test system: M14
[30] = test system: M19-MEL
[31] = test system: MCF7
[32] = test system: MDA-MB-231
[33] = test system: MDA-MB-435
[34] = test system: MDA-N
[35] = test system: MOLT-4
[36] = test system: Malme-3M
[37] = test system: NCI-H226
[38] = test system: NCI-H23
[39] = test system: NCI-H460
[40] = test system: NCI-H522
[41] = test system: NCI/ADR-RES
[42] = test system: OVCAR-3
[43] = test system: OVCAR-4
[44] = test system: OVCAR-5
[45] = test system: OVCAR-8
[46] = test system: PC-3
[47] = test system: RPMI-8226
[48] = test system: RXF 393
[49] = test system: SF-268
[50] = test system: SF-295
[51] = test system: SF-539
[52] = test system: SK-MEL-28
[53] = test system: SK-MEL-2
[54] = test system: SK-MEL-5
[55] = test system: SK-OV-3
[56] = test system: SN12C
[57] = test system: SNB-19
[58] = test system: SNB-75
[59] = test system: SNB-78
[60] = test system: SR
[61] = test system: SW-620
[62] = test system: TK-10
[63] = test system: U-251
[64] = test system: UACC-257
[65] = test system: UACC-62
[66] = test system: UO-31

Compound: Cc1c2cc[n+](C)cc2c(C)c2c1oc1ccccc12
- GI50 [1]: 1.17 µM (inactive)
- GI50 [2]: 42.9 µM (inactive)
- GI50 [3]: 1.95 µM (inactive)
- GI50 [4]: 39.6 µM (inactive)
- GI50 [5]: 0.608 µM (active)
- GI50 [6]: 28.4 µM (inactive)
- GI50 [7]: 3.18 µM (inactive)
- GI50 [8]: 3.51 µM (inactive)
- GI50 [9]: 8.57 µM (inactive)
- GI50 [10]: 1.31 µM (inactive)
- GI50 [11]: 3.57 µM (inactive)
- GI50 [12]: 15.9 µM (inactive)
- GI50 [13]: 5.5 µM (inactive)
- GI50 [14]: 2.75 µM (inactive)
- GI50 [15]: 6.43 µM (inactive)
- GI50 [16]: > 87.3 µM
- GI50 [17]: 12 µM (inactive)
- GI50 [18]: 6.82 µM (inactive)
- GI50 [19]: 2.06 µM (inactive)
- GI50 [20]: 6.5 µM (inactive)
- GI50 [21]: 14.4 µM (inactive)
- GI50 [22]: 0.54 µM (active)
- GI50 [23]: 4.74 µM (inactive)
- GI50 [24]: 6.38 µM (inactive)
- GI50 [25]: 9.98 µM (inactive)
- GI50 [26]: 1.62 µM (inactive)
- GI50 [27]: 11.4 µM (inactive)
- GI50 [28]: 1.54 µM (inactive)
- GI50 [29]: 14.6 µM (inactive)
- GI50 [30]: 2.64 µM (inactive)
- GI50 [31]: 6.37 µM (inactive)
- GI50 [32]: 12.9 µM (inactive)
- GI50 [33]: 7.83 µM (inactive)
- GI50 [34]: 11 µM (inactive)
- GI50 [35]: 2.74 µM (inactive)
- GI50 [36]: 1.6 µM (inactive)
- GI50 [37]: 2.19 µM (inactive)
- GI50 [38]: 2.24 µM (inactive)
- GI50 [39]: 3.24 µM (inactive)
- GI50 [40]: 1.95 µM (inactive)
- GI50 [41]: > 100 µM (inactive)
- GI50 [42]: 2.65 µM (inactive)
- GI50 [43]: 7.14 µM (inactive)
- GI50 [44]: 15.6 µM (inactive)
- GI50 [45]: 1.67 µM (inactive)
- GI50 [46]: 6.38 µM (inactive)
- GI50 [47]: 4.2 µM (inactive)
- GI50 [48]: 15.2 µM (inactive)
- GI50 [49]: 0.406 µM (active)
- GI50 [50]: 1.69 µM (inactive)
- GI50 [51]: 2.24 µM (inactive)
- GI50 [52]: 6.85 µM (inactive)
- GI50 [53]: 4.13 µM (inactive)
- GI50 [54]: 3.41 µM (inactive)
- GI50 [55]: 14.7 µM (inactive)
- GI50 [56]: 0.475 µM (active)
- GI50 [57]: 0.893 µM (active)
- GI50 [58]: 1.98 µM (inactive)
- GI50 [59]: 4.02 µM (inactive)
- GI50 [60]: 4.85 µM (inactive)
- GI50 [61]: 3 µM (inactive)
- GI50 [62]: 31.4 µM (inactive)
- GI50 [63]: 0.652 µM (active)
- GI50 [64]: 4.29 µM (inactive)
- GI50 [65]: 5.62 µM (inactive)
- GI50 [66]: 68.7 µM (inactive)

Compound: C[C@H]1C[C@@H]2[C@H]([C@@H](O)C[C@@]3(C)[C@H]2CC[C@]3(O)C(=O)CO)[C@@]2(C)C=CC(=O)C=C12 [METHYLPREDNISOLONE]
- GI50 [1]: > 100 µM (inactive)
- GI50 [2]: > 100 µM (inactive)
- GI50 [3]: > 100 µM (inactive)
- GI50 [4]: > 100 µM (inactive)
- GI50 [6]: > 100 µM (inactive)
- GI50 [7]: 0.0429 µM (active)
- GI50 [8]: > 100 µM (inactive)
- GI50 [9]: > 100 µM (inactive)
- GI50 [10]: > 100 µM (inactive)
- GI50 [11]: > 100 µM (inactive)
- GI50 [14]: > 100 µM (inactive)
- GI50 [15]: > 100 µM (inactive)
- GI50 [16]: > 100 µM
- GI50 [17]: > 100 µM (inactive)
- GI50 [18]: > 100 µM (inactive)
- GI50 [19]: > 100 µM (inactive)
- GI50 [20]: > 100 µM (inactive)
- GI50 [21]: > 100 µM (inactive)
- GI50 [23]: > 100 µM (inactive)
- GI50 [24]: > 100 µM (inactive)
- GI50 [25]: > 100 µM (inactive)
- GI50 [26]: > 100 µM (inactive)
- GI50 [27]: > 100 µM (inactive)
- GI50 [29]: > 100 µM (inactive)
- GI50 [30]: > 100 µM (inactive)
- GI50 [35]: > 100 µM (inactive)
- GI50 [36]: > 100 µM (inactive)
- GI50 [37]: > 100 µM (inactive)
- GI50 [38]: > 100 µM (inactive)
- GI50 [39]: > 100 µM (inactive)
- GI50 [40]: > 100 µM (inactive)
- GI50 [42]: > 100 µM (inactive)
- GI50 [43]: > 100 µM (inactive)
- GI50 [44]: > 100 µM (inactive)
- GI50 [45]: > 100 µM (inactive)
- GI50 [47]: > 100 µM (inactive)
- GI50 [52]: > 100 µM (inactive)
- GI50 [53]: > 100 µM (inactive)
- GI50 [54]: > 100 µM (inactive)
- GI50 [55]: > 100 µM (inactive)
- GI50 [56]: 46.6 µM (inactive)
- GI50 [60]: > 100 µM (inactive)
- GI50 [61]: > 100 µM (inactive)
- GI50 [62]: > 100 µM (inactive)
- GI50 [64]: > 100 µM (inactive)
- GI50 [65]: > 100 µM (inactive)
- GI50 [66]: > 100 µM (inactive)
